Data as given in PubChem BioAssay (NCI).
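Following 48 hours of exposure in 96-well plates, responses at five concentrations were used to interpolate endpoints linearly. GI50: concentration for 50% inhibition of growth. The concentration for full growth arrest is given as TGI.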

How the values were obtained:
Test in all cases: NCI tumour cell line growth inhibition, 48 h; in the data active = GI50 below about 0.43 µM; inactive = the rest
[1] = tested on: CAKI-1 renal
[2] = tested on: HCT-116 colon
[3] = tested on: CCRF-CEM leukemia
[4] = tested on: NCI-H522 lung
[5] = tested on: UACC-62 melanoma
[6] = tested on: UO-31 renal
[7] = tested on: A498 renal
[8] = tested on: NCI/ADR-RES ovarian
[9] = tested on: NCI-H226 lung
[10] = tested on: MOLT-4 leukemia
[11] = tested on: KM12 colon
[12] = tested on: TK-10 renal
[13] = tested on: UACC-257 melanoma
[14] = tested on: SR leukemia
[15] = tested on: SN12C renal
[16] = tested on: PC-3 prostate
[17] = tested on: HS 578T breast
[18] = tested on: OVCAR-3 ovarian
[19] = tested on: A549 NSCLC
[20] = tested on: 786-0 renal
[21] = tested on: U251 CNS
[22] = tested on: HCT-15 colon
[23] = tested on: HOP-92 NSCLC
[24] = tested on: MDA-MB-435
[25] = tested on: HCC-2998 colon
[26] = tested on: SF-268 CNS
[27] = tested on: NCI-H23 lung
[28] = tested on: SK-MEL-28 melanoma
[29] = tested on: K-562 leukemia
[30] = tested on: COLO 205 colon
[31] = tested on: ACHN renal
[32] = tested on: EKVX NSCLC
[33] = tested on: SF-295 CNS
[34] = tested on: SW-620 colon
[35] = tested on: LOX IMVI melanoma
[36] = tested on: SK-MEL-2 melanoma
[37] = tested on: IGROV1 ovarian
[38] = tested on: OVCAR-4 ovarian
[39] = tested on: BT-549 breast
[40] = tested on: OVCAR-8 ovarian
[41] = tested on: RPMI-8226 leukemia
[42] = tested on: DU-145 prostate
[43] = tested on: MDA-MB-231 breast
[44] = tested on: RXF 393 renal
[45] = tested on: HT29 colon
[46] = tested on: NCI-H460 lung
[47] = tested on: M14 melanoma
[48] = tested on: SNB-75 CNS
[49] = tested on: SK-MEL-5 melanoma
[50] = tested on: MCF7 breast
[51] = tested on: HOP-62 NSCLC
[52] = tested on: HL-60(TB) leukemia
[53] = tested on: OVCAR-5 ovarian
[54] = tested on: SNB-19 CNS

Cc1cc(C)c(-c2cc(O)c(-c3c(C)cc(C)cc3C)cc2O)c(C)c1
inactive: GI50 [1] 4.23 µM | GI50 [2] 3.51 µM | GI50 [3] 4.1 µM | GI50 [4] 1.74 µM | GI50 [5] 3.18 µM | GI50 [6] 9.7 µM | GI50 [7] 2.58 µM | GI50 [8] 4.33 µM | GI50 [9] 38.7 µM | GI50 [10] 6.93 µM | GI50 [11] 2.19 µM | GI50 [12] > 100 µM | GI50 [13] > 100 µM | GI50 [14] 2.43 µM | GI50 [15] 5.52 µM | GI50 [16] 4.44 µM | GI50 [17] 3.29 µM | GI50 [18] 2.05 µM | GI50 [19] 4.6 µM | GI50 [20] 6.49 µM | GI50 [21] 4.22 µM | GI50 [22] 3.73 µM | GI50 [23] 37.2 µM | GI50 [24] 0.482 µM | GI50 [25] 2.9 µM | GI50 [26] 5.83 µM | GI50 [27] 4.05 µM | GI50 [28] 8.14 µM | GI50 [29] 2.91 µM | GI50 [30] 2.27 µM | GI50 [31] 7.43 µM | GI50 [32] 5.83 µM | GI50 [33] 2.68 µM | GI50 [34] 3.17 µM | GI50 [35] 4.39 µM | GI50 [36] 4.55 µM | GI50 [37] 4.18 µM | GI50 [38] 7.6 µM | GI50 [39] 6.39 µM | GI50 [40] 5.37 µM | GI50 [41] 5.82 µM | GI50 [42] 3.35 µM | GI50 [43] 3.29 µM | GI50 [44] 2.77 µM | GI50 [45] 3.18 µM | GI50 [46] 3.45 µM | GI50 [47] 2.77 µM | GI50 [48] 2.87 µM | GI50 [49] 1.61 µM | GI50 [50] 2.46 µM | GI50 [51] 4.55 µM | GI50 [52] 3.21 µM | GI50 [53] 11.3 µM | GI50 [54] 3.58 µM
31.2 µM: TGI [49]
4.85 µM: TGI [18]
65.1 µM: TGI [45]
15.2 µM: TGI [42]
> 100 µM: TGI [1] | TGI [2] | TGI [3] | TGI [5] | TGI [6] | TGI [7] | TGI [8] | TGI [9] | TGI [10] | TGI [11] | TGI [12] | TGI [13] | TGI [14] | TGI [15] | TGI [16] | TGI [17] | TGI [19] | TGI [20] | TGI [21] | TGI [22] | TGI [23] | TGI [24] | TGI [25] | TGI [26] | TGI [27] | TGI [28] | TGI [29] | TGI [31] | TGI [32] | TGI [33] | TGI [34] | TGI [35] | TGI [36] | TGI [37] | TGI [38] | TGI [39] | TGI [40] | TGI [41] | TGI [44] | TGI [46] | TGI [47] | TGI [48] | TGI [50] | TGI [51] | TGI [52] | TGI [53] | TGI [54]
4.46 µM: TGI [4]
5.68 µM: TGI [30]
11.3 µM: TGI [43]
